Measurements as given in ChEMBL document CHEMBL1201862, “PubChem BioAssay data set” (2004).
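Grown in 96-well plates, cells were treated for 48 hours with each compound at five concentrations. Insufficient inhibition: endpoint recorded as highest concentration tested. GI50: concentration for 50% inhibition of growth.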 Calls of active or inactive are those of the source. No stated cut-off is given here; in the data, active = GI50 up to about 1.1 µM and inactive = higher.

Columns and labels:
Test in all cases: NCI-60 cell line screen, 48 h
[1] = tested on: A498
[2] = tested on: A549
[3] = tested on: CCRF-CEM
[4] = tested on: HCC 2998
[5] = tested on: HCT-15
[6] = tested on: HOP-62
[7] = tested on: HOP-92
[8] = tested on: IGROV-1
[9] = tested on: M14
[10] = tested on: MDA-MB-435
[11] = tested on: NCI-H23
[12] = tested on: OVCAR-4
[13] = tested on: OVCAR-8
[14] = tested on: PC-3
[15] = tested on: RXF 393
[16] = tested on: SF-295
[17] = tested on: SN12C
[18] = tested on: U-251
[19] = tested on: UACC-62
[20] = tested on: SNB-75

Structure (SMILES)	GI50 [1]	GI50 [2]	GI50 [3]	GI50 [4]	GI50 [5]	GI50 [6]	GI50 [7]	GI50 [8]	GI50 [9]	GI50 [10]	GI50 [11]	GI50 [12]	GI50 [13]	GI50 [14]	GI50 [15]	GI50 [16]	GI50 [17]	GI50 [18]	GI50 [19]	GI50 [20]
C#CCOC(=O)C(=[N+]=[N-])C(=O)CC(C)C	> 10 µM (inactive)	> 10 µM (inactive)	> 10 µM (inactive)	> 10 µM (inactive)	> 10 µM	> 10 µM (inactive)	> 10 µM (inactive)	> 10 µM (inactive)	> 10 µM (inactive)	> 10 µM (inactive)	> 10 µM (inactive)	> 10 µM (inactive)	> 10 µM (inactive)	> 10 µM (inactive)	> 10 µM (inactive)	> 10 µM (inactive)	> 10 µM (inactive)	> 10 µM (inactive)	> 10 µM (inactive)	–
FC1CCN(C2(c3cccs3)CCCCC2)CC1	> 100 µM (inactive)	> 100 µM (inactive)	–	27.2 µM (inactive)	> 100 µM	> 100 µM (inactive)	62.8 µM (inactive)	> 100 µM (inactive)	77.1 µM (inactive)	> 100 µM (inactive)	> 100 µM (inactive)	> 100 µM (inactive)	> 100 µM (inactive)	> 100 µM (inactive)	> 100 µM (inactive)	> 100 µM (inactive)	> 100 µM (inactive)	> 100 µM (inactive)	> 100 µM (inactive)	> 100 µM (inactive)
Nc1nc(Cl)c(N)c(NCC2(CO)CCC(OCc3ccccc3)C2)n1 (stereo not drawn)	0.982 µM (active)	> 100 µM (inactive)	> 100 µM (inactive)	> 100 µM (inactive)	61.9 µM	> 100 µM (inactive)	> 100 µM (inactive)	> 100 µM (inactive)	–	95.9 µM (inactive)	> 100 µM (inactive)	43.4 µM (inactive)	> 100 µM (inactive)	> 100 µM (inactive)	8.85 µM (inactive)	4.9 µM (inactive)	> 100 µM (inactive)	> 100 µM (inactive)	> 100 µM (inactive)	> 100 µM (inactive)
CC(C)CC(NC(=O)C(CCI)Cc1ccccc1)C(=O)Nc1ccccc1 (stereo not drawn)	> 100 µM (inactive)	80.9 µM (inactive)	30.1 µM (inactive)	> 100 µM (inactive)	49.9 µM	–	> 100 µM (inactive)	51.1 µM (inactive)	35.6 µM (inactive)	58.5 µM (inactive)	49 µM (inactive)	> 100 µM (inactive)	49.5 µM (inactive)	51.1 µM (inactive)	> 100 µM (inactive)	> 100 µM (inactive)	> 100 µM (inactive)	> 100 µM (inactive)	> 100 µM (inactive)	93.8 µM (inactive)
Cc1ccc2c(c1)CC1(C2)Cc2ccc(C)cc2C1=O (stereo not drawn)	36.9 µM (inactive)	33.3 µM (inactive)	22.1 µM (inactive)	25.9 µM (inactive)	15.6 µM	28 µM (inactive)	19.5 µM (inactive)	36 µM (inactive)	20.2 µM (inactive)	11.4 µM (inactive)	36.5 µM (inactive)	46.5 µM (inactive)	36.5 µM (inactive)	27.9 µM (inactive)	17.9 µM (inactive)	45.9 µM (inactive)	24.8 µM (inactive)	37 µM (inactive)	–	18.2 µM (inactive)
O=C(O)C(Br)C(Br)C(=O)O (stereo not drawn)	> 100 µM (inactive)	> 100 µM (inactive)	–	> 100 µM (inactive)	> 100 µM	> 100 µM (inactive)	> 100 µM (inactive)	> 100 µM (inactive)	> 100 µM (inactive)	> 100 µM (inactive)	> 100 µM (inactive)	> 100 µM (inactive)	> 100 µM (inactive)	> 100 µM (inactive)	> 100 µM (inactive)	> 100 µM (inactive)	> 100 µM (inactive)	> 100 µM (inactive)	> 100 µM (inactive)	> 100 µM (inactive)
CC(C)(C)c1cc2c(O)c(c1)Cc1cc(C(C#N)(Cc3ccc4ccccc4c3)Cc3ccc4ccccc4c3)cc(c1O)Cc1cc(C(C)(C)C)cc(c1O)Cc1cc(C(C#N)(Cc3ccc4ccccc4c3)Cc3ccc4ccccc4c3)cc(c1O)C2	> 100 µM (inactive)	> 100 µM (inactive)	> 100 µM (inactive)	> 100 µM (inactive)	> 100 µM	> 100 µM (inactive)	> 100 µM (inactive)	> 100 µM (inactive)	> 100 µM (inactive)	> 100 µM (inactive)	> 100 µM (inactive)	> 100 µM (inactive)	> 100 µM (inactive)	> 100 µM (inactive)	> 100 µM (inactive)	> 100 µM (inactive)	> 100 µM (inactive)	67 µM (inactive)	> 100 µM (inactive)	> 100 µM (inactive)
N#Cc1ccc(-c2nc3c(N)nc(-c4ccccc4)nc3o2)cc1	> 100 µM (inactive)	88.7 µM (inactive)	> 10 µM (inactive)	> 100 µM (inactive)	> 100 µM	19.7 µM (inactive)	31.5 µM (inactive)	> 100 µM (inactive)	> 100 µM (inactive)	> 100 µM (inactive)	> 100 µM (inactive)	17.3 µM (inactive)	12.9 µM (inactive)	> 100 µM (inactive)	23.8 µM (inactive)	51.1 µM (inactive)	> 100 µM (inactive)	5.11 µM (inactive)	> 100 µM (inactive)	72.9 µM (inactive)
C/N=C(\Nc1cccc(C(F)(F)F)c1)SCc1ccc(N=C=S)cc1	19.9 µM (inactive)	18.1 µM (inactive)	23.4 µM (inactive)	15.6 µM (inactive)	7.14 µM	17.5 µM (inactive)	14.7 µM (inactive)	16.4 µM (inactive)	–	13.8 µM (inactive)	16.3 µM (inactive)	13.3 µM (inactive)	19.6 µM (inactive)	15.9 µM (inactive)	13.4 µM (inactive)	16 µM (inactive)	13.8 µM (inactive)	15.8 µM (inactive)	11.8 µM (inactive)	14.2 µM (inactive)
CC(=O)Oc1ccc2c(c1)CC[C@@H]1C2[C@@H](O[N+](=O)[O-])C[C@@]2(C)C1CC[C@@H]2O (stereo partly drawn)	31.2 µM (inactive)	37.3 µM (inactive)	22.1 µM (inactive)	10.6 µM (inactive)	28.9 µM	17.1 µM (inactive)	> 88.1 µM (inactive)	55.3 µM (inactive)	28.3 µM (inactive)	7.31 µM (inactive)	42.9 µM (inactive)	52.1 µM (inactive)	31.3 µM (inactive)	47.3 µM (inactive)	38.7 µM (inactive)	35.5 µM (inactive)	34.5 µM (inactive)	27.6 µM (inactive)	26.5 µM (inactive)	45.7 µM (inactive)
Cc1c2cc[n+](C)cc2c(C)c2c1[nH]c1ccc(Cl)cc12	0.282 µM (active)	0.197 µM (active)	0.802 µM (active)	1.63 µM (inactive)	5.87 µM	0.631 µM (active)	2.96 µM (inactive)	1.02 µM (active)	5.57 µM (inactive)	5.98 µM (inactive)	0.843 µM (active)	3.28 µM (inactive)	0.298 µM (active)	0.918 µM (active)	1.18 µM (inactive)	0.374 µM (active)	0.214 µM (active)	0.25 µM (active)	3.98 µM (inactive)	0.242 µM (active)
